US20150132746A1, “SAMPLING MEDIUM” (UNIVERSITY OF OSLO, priority 2012, published 2015)
Where a name gives a salt, the structure may show the parent alone.

Experiment: Long term stability of model analytes in dried oral fluid stored 30 days on alginate or chitosan foam
Assay type: physicochemical, human
Settings: oral fluid on alginate foam; theoretical 100 ng/ml; stored at 4 C; n = 3
Text: The results are shown in Tables 3 and 4 for alginate and chitosan foam, respectively. No sample loss is observed after 30 days of storage. The stability of the model analytes by storing oral fluid on alginate and chitosan foam was considered satisfactory.

Compound	Measured concentration at day 30
CO[C@@]12CC[C@@]3(C[C@@H]1[C@](C)(O)C(C)(C)C)[C@H]1Cc4ccc(O)c5c4[C@@]3(CCN1CC1CC1)[C@H]2O5.Cl [Buprenorphine, buprenorphine hydrochloride]	101 ng/mL
CCC(=O)C(CC(C)N(C)C)(c1ccccc1)c1ccccc1 (stereo not drawn) [Methadone, Methadone hydrochloride]	113 ng/mL
CN[C@@H](C)Cc1ccccc1 [Methamphetamine]	107 ng/mL
COc1ccc(CC(C)N)cc1 (stereo not drawn) [PMA, para-methoxyamphetamine]	115 ng/mL
CNC(C)Cc1ccc(OC)cc1 (stereo not drawn) [PMMA, para-methoxymethamphetamine]	114 ng/mL

Same assay, conditions: oral fluid on alginate foam; theoretical 100 ng/ml; stored at 37 C; n = 3

Compound	Measured concentration at day 30
CO[C@@]12CC[C@@]3(C[C@@H]1[C@](C)(O)C(C)(C)C)[C@H]1Cc4ccc(O)c5c4[C@@]3(CCN1CC1CC1)[C@H]2O5.Cl [Buprenorphine, buprenorphine hydrochloride]	115 ng/mL
CCC(=O)C(CC(C)N(C)C)(c1ccccc1)c1ccccc1 (stereo not drawn) [Methadone, Methadone hydrochloride]	117 ng/mL
CN[C@@H](C)Cc1ccccc1 [Methamphetamine]	42 ng/mL
COc1ccc(CC(C)N)cc1 (stereo not drawn) [PMA, para-methoxyamphetamine]	53 ng/mL
CNC(C)Cc1ccc(OC)cc1 (stereo not drawn) [PMMA, para-methoxymethamphetamine]	76 ng/mL

Same assay, conditions: oral fluid on alginate foam; theoretical 100 ng/ml; stored at room temperature; n = 3

Compound	Measured concentration at day 30
CO[C@@]12CC[C@@]3(C[C@@H]1[C@](C)(O)C(C)(C)C)[C@H]1Cc4ccc(O)c5c4[C@@]3(CCN1CC1CC1)[C@H]2O5.Cl [Buprenorphine, buprenorphine hydrochloride]	97 ng/mL
CCC(=O)C(CC(C)N(C)C)(c1ccccc1)c1ccccc1 (stereo not drawn) [Methadone, Methadone hydrochloride]	103 ng/mL
CN[C@@H](C)Cc1ccccc1 [Methamphetamine]	72 ng/mL
COc1ccc(CC(C)N)cc1 (stereo not drawn) [PMA, para-methoxyamphetamine]	80 ng/mL
CNC(C)Cc1ccc(OC)cc1 (stereo not drawn) [PMMA, para-methoxymethamphetamine]	197 ng/mL

Same assay, conditions: oral fluid on alginate foam; theoretical 100 ng/ml; stored at −18 C; n = 3

Compound	Measured concentration at day 30
CO[C@@]12CC[C@@]3(C[C@@H]1[C@](C)(O)C(C)(C)C)[C@H]1Cc4ccc(O)c5c4[C@@]3(CCN1CC1CC1)[C@H]2O5.Cl [Buprenorphine, buprenorphine hydrochloride]	96 ng/mL
CCC(=O)C(CC(C)N(C)C)(c1ccccc1)c1ccccc1 (stereo not drawn) [Methadone, Methadone hydrochloride]	106 ng/mL
CN[C@@H](C)Cc1ccccc1 [Methamphetamine]	103 ng/mL
COc1ccc(CC(C)N)cc1 (stereo not drawn) [PMA, para-methoxyamphetamine]	105 ng/mL
CNC(C)Cc1ccc(OC)cc1 (stereo not drawn) [PMMA, para-methoxymethamphetamine]	114 ng/mL

Same assay, conditions: oral fluid on alginate foam; theoretical 500 ng/ml; stored at 4 C; n = 3

Compound	Measured concentration at day 30
CO[C@@]12CC[C@@]3(C[C@@H]1[C@](C)(O)C(C)(C)C)[C@H]1Cc4ccc(O)c5c4[C@@]3(CCN1CC1CC1)[C@H]2O5.Cl [Buprenorphine, buprenorphine hydrochloride]	790 ng/mL
CCC(=O)C(CC(C)N(C)C)(c1ccccc1)c1ccccc1 (stereo not drawn) [Methadone, Methadone hydrochloride]	636 ng/mL
CN[C@@H](C)Cc1ccccc1 [Methamphetamine]	645 ng/mL
COc1ccc(CC(C)N)cc1 (stereo not drawn) [PMA, para-methoxyamphetamine]	722 ng/mL
CNC(C)Cc1ccc(OC)cc1 (stereo not drawn) [PMMA, para-methoxymethamphetamine]	715 ng/mL

Same assay, conditions: oral fluid on alginate foam; theoretical 500 ng/ml; stored at 37 C; n = 3

Compound	Measured concentration at day 30
CO[C@@]12CC[C@@]3(C[C@@H]1[C@](C)(O)C(C)(C)C)[C@H]1Cc4ccc(O)c5c4[C@@]3(CCN1CC1CC1)[C@H]2O5.Cl [Buprenorphine, buprenorphine hydrochloride]	656 ng/mL
CN[C@@H](C)Cc1ccccc1 [Methamphetamine]	319 ng/mL
COc1ccc(CC(C)N)cc1 (stereo not drawn) [PMA, para-methoxyamphetamine]	406 ng/mL
CNC(C)Cc1ccc(OC)cc1 (stereo not drawn) [PMMA, para-methoxymethamphetamine]	475 ng/mL

Same assay, conditions: oral fluid on alginate foam; theoretical 500 ng/ml; stored at room temperature; n = 3

Compound	Measured concentration at day 30
CO[C@@]12CC[C@@]3(C[C@@H]1[C@](C)(O)C(C)(C)C)[C@H]1Cc4ccc(O)c5c4[C@@]3(CCN1CC1CC1)[C@H]2O5.Cl [Buprenorphine, buprenorphine hydrochloride]	642 ng/mL
CCC(=O)C(CC(C)N(C)C)(c1ccccc1)c1ccccc1 (stereo not drawn) [Methadone, Methadone hydrochloride]	582 ng/mL
CN[C@@H](C)Cc1ccccc1 [Methamphetamine]	466 ng/mL
COc1ccc(CC(C)N)cc1 (stereo not drawn) [PMA, para-methoxyamphetamine]	628 ng/mL
CNC(C)Cc1ccc(OC)cc1 (stereo not drawn) [PMMA, para-methoxymethamphetamine]	628 ng/mL

Same assay, conditions: oral fluid on alginate foam; theoretical 500 ng/ml; stored at −18 C; n = 3

Compound	Measured concentration at day 30
CO[C@@]12CC[C@@]3(C[C@@H]1[C@](C)(O)C(C)(C)C)[C@H]1Cc4ccc(O)c5c4[C@@]3(CCN1CC1CC1)[C@H]2O5.Cl [Buprenorphine, buprenorphine hydrochloride]	656 ng/mL
CCC(=O)C(CC(C)N(C)C)(c1ccccc1)c1ccccc1 (stereo not drawn) [Methadone, Methadone hydrochloride]	602 ng/mL
CN[C@@H](C)Cc1ccccc1 [Methamphetamine]	687 ng/mL
COc1ccc(CC(C)N)cc1 (stereo not drawn) [PMA, para-methoxyamphetamine]	717 ng/mL
CNC(C)Cc1ccc(OC)cc1 (stereo not drawn) [PMMA, para-methoxymethamphetamine]	726 ng/mL

Same assay, conditions: oral fluid on chitosan foam; theoretical 100 ng/ml; stored at 4 C; n = 3

Compound	Measured concentration at day 30
CO[C@@]12CC[C@@]3(C[C@@H]1[C@](C)(O)C(C)(C)C)[C@H]1Cc4ccc(O)c5c4[C@@]3(CCN1CC1CC1)[C@H]2O5.Cl [Buprenorphine, buprenorphine hydrochloride]	105 ng/mL
CCC(=O)C(CC(C)N(C)C)(c1ccccc1)c1ccccc1 (stereo not drawn) [Methadone, Methadone hydrochloride]	115 ng/mL
CN[C@@H](C)Cc1ccccc1 [Methamphetamine]	126 ng/mL
COc1ccc(CC(C)N)cc1 (stereo not drawn) [PMA, para-methoxyamphetamine]	127 ng/mL
CNC(C)Cc1ccc(OC)cc1 (stereo not drawn) [PMMA, para-methoxymethamphetamine]	123 ng/mL

Same assay, conditions: oral fluid on chitosan foam; theoretical 100 ng/ml; stored at 37 C; n = 3

Compound	Measured concentration at day 30
CO[C@@]12CC[C@@]3(C[C@@H]1[C@](C)(O)C(C)(C)C)[C@H]1Cc4ccc(O)c5c4[C@@]3(CCN1CC1CC1)[C@H]2O5.Cl [Buprenorphine, buprenorphine hydrochloride]	100 ng/mL
CCC(=O)C(CC(C)N(C)C)(c1ccccc1)c1ccccc1 (stereo not drawn) [Methadone, Methadone hydrochloride]	108 ng/mL
CN[C@@H](C)Cc1ccccc1 [Methamphetamine]	80 ng/mL
COc1ccc(CC(C)N)cc1 (stereo not drawn) [PMA, para-methoxyamphetamine]	131 ng/mL
CNC(C)Cc1ccc(OC)cc1 (stereo not drawn) [PMMA, para-methoxymethamphetamine]	112 ng/mL

Same assay, conditions: oral fluid on chitosan foam; theoretical 100 ng/ml; stored at room temperature; n = 3

Compound	Measured concentration at day 30
CO[C@@]12CC[C@@]3(C[C@@H]1[C@](C)(O)C(C)(C)C)[C@H]1Cc4ccc(O)c5c4[C@@]3(CCN1CC1CC1)[C@H]2O5.Cl [Buprenorphine, buprenorphine hydrochloride]	101 ng/mL
CCC(=O)C(CC(C)N(C)C)(c1ccccc1)c1ccccc1 (stereo not drawn) [Methadone, Methadone hydrochloride]	113 ng/mL
CN[C@@H](C)Cc1ccccc1 [Methamphetamine]	98 ng/mL
COc1ccc(CC(C)N)cc1 (stereo not drawn) [PMA, para-methoxyamphetamine]	104 ng/mL
CNC(C)Cc1ccc(OC)cc1 (stereo not drawn) [PMMA, para-methoxymethamphetamine]	104 ng/mL

Same assay, conditions: oral fluid on chitosan foam; theoretical 100 ng/ml; stored at −18 C; n = 3

Compound	Measured concentration at day 30
CO[C@@]12CC[C@@]3(C[C@@H]1[C@](C)(O)C(C)(C)C)[C@H]1Cc4ccc(O)c5c4[C@@]3(CCN1CC1CC1)[C@H]2O5.Cl [Buprenorphine, buprenorphine hydrochloride]	101 ng/mL
CCC(=O)C(CC(C)N(C)C)(c1ccccc1)c1ccccc1 (stereo not drawn) [Methadone, Methadone hydrochloride]	105 ng/mL
CN[C@@H](C)Cc1ccccc1 [Methamphetamine]	117 ng/mL
COc1ccc(CC(C)N)cc1 (stereo not drawn) [PMA, para-methoxyamphetamine]	122 ng/mL
CNC(C)Cc1ccc(OC)cc1 (stereo not drawn) [PMMA, para-methoxymethamphetamine]	119 ng/mL

Same assay, conditions: oral fluid on chitosan foam; theoretical 500 ng/ml; stored at 4 C; n = 3

Compound	Measured concentration at day 30
CO[C@@]12CC[C@@]3(C[C@@H]1[C@](C)(O)C(C)(C)C)[C@H]1Cc4ccc(O)c5c4[C@@]3(CCN1CC1CC1)[C@H]2O5.Cl [Buprenorphine, buprenorphine hydrochloride]	569 ng/mL
CCC(=O)C(CC(C)N(C)C)(c1ccccc1)c1ccccc1 (stereo not drawn) [Methadone, Methadone hydrochloride]	564 ng/mL
CN[C@@H](C)Cc1ccccc1 [Methamphetamine]	744 ng/mL
COc1ccc(CC(C)N)cc1 (stereo not drawn) [PMA, para-methoxyamphetamine]	765 ng/mL
CNC(C)Cc1ccc(OC)cc1 (stereo not drawn) [PMMA, para-methoxymethamphetamine]	765 ng/mL

Same assay, conditions: oral fluid on chitosan foam; theoretical 500 ng/ml; stored at 37 C; n = 3

Compound	Measured concentration at day 30
CO[C@@]12CC[C@@]3(C[C@@H]1[C@](C)(O)C(C)(C)C)[C@H]1Cc4ccc(O)c5c4[C@@]3(CCN1CC1CC1)[C@H]2O5.Cl [Buprenorphine, buprenorphine hydrochloride]	595 ng/mL
CCC(=O)C(CC(C)N(C)C)(c1ccccc1)c1ccccc1 (stereo not drawn) [Methadone, Methadone hydrochloride]	545 ng/mL
CN[C@@H](C)Cc1ccccc1 [Methamphetamine]	467 ng/mL
COc1ccc(CC(C)N)cc1 (stereo not drawn) [PMA, para-methoxyamphetamine]	648 ng/mL
CNC(C)Cc1ccc(OC)cc1 (stereo not drawn) [PMMA, para-methoxymethamphetamine]	623 ng/mL

Same assay, conditions: oral fluid on chitosan foam; theoretical 500 ng/ml; stored at room temperature; n = 3

Compound	Measured concentration at day 30
CO[C@@]12CC[C@@]3(C[C@@H]1[C@](C)(O)C(C)(C)C)[C@H]1Cc4ccc(O)c5c4[C@@]3(CCN1CC1CC1)[C@H]2O5.Cl [Buprenorphine, buprenorphine hydrochloride]	595 ng/mL
CCC(=O)C(CC(C)N(C)C)(c1ccccc1)c1ccccc1 (stereo not drawn) [Methadone, Methadone hydrochloride]	582 ng/mL
CN[C@@H](C)Cc1ccccc1 [Methamphetamine]	601 ng/mL
COc1ccc(CC(C)N)cc1 (stereo not drawn) [PMA, para-methoxyamphetamine]	719 ng/mL
CNC(C)Cc1ccc(OC)cc1 (stereo not drawn) [PMMA, para-methoxymethamphetamine]	647 ng/mL

Same assay, conditions: oral fluid on chitosan foam; theoretical 500 ng/ml; stored at −18 C; n = 3

Compound	Measured concentration at day 30
CO[C@@]12CC[C@@]3(C[C@@H]1[C@](C)(O)C(C)(C)C)[C@H]1Cc4ccc(O)c5c4[C@@]3(CCN1CC1CC1)[C@H]2O5.Cl [Buprenorphine, buprenorphine hydrochloride]	611 ng/mL
CCC(=O)C(CC(C)N(C)C)(c1ccccc1)c1ccccc1 (stereo not drawn) [Methadone, Methadone hydrochloride]	599 ng/mL
CN[C@@H](C)Cc1ccccc1 [Methamphetamine]	732 ng/mL
COc1ccc(CC(C)N)cc1 (stereo not drawn) [PMA, para-methoxyamphetamine]	769 ng/mL
CNC(C)Cc1ccc(OC)cc1 (stereo not drawn) [PMMA, para-methoxymethamphetamine]	769 ng/mL

Experiment: not given
Settings: whole blood 70 ng/ml on alginate foam; stored at 4° C.

Compound	Nominal concentration at day 50
CN(C)CCCC1(c2ccc(F)cc2)OCc2cc(C#N)ccc21 (stereo not drawn) [Citalopram, citalopram hydrobromide]	64 ng/mL
CCC(=O)C(CC(C)N(C)C)(c1ccccc1)c1ccccc1 (stereo not drawn) [Methadone, Methadone hydrochloride]	63 ng/mL
CN[C@H]1CC[C@@H](c2ccc(Cl)c(Cl)c2)c2ccccc21 [Sertraline, sertraline hydrochloride]	69 ng/mL

Same assay, conditions: whole blood 70 ng/ml on alginate foam; stored at 37° C.

Compound	Nominal concentration at day 50
CN(C)CCCC1(c2ccc(F)cc2)OCc2cc(C#N)ccc21 (stereo not drawn) [Citalopram, citalopram hydrobromide]	59 ng/mL
CCC(=O)C(CC(C)N(C)C)(c1ccccc1)c1ccccc1 (stereo not drawn) [Methadone, Methadone hydrochloride]	54 ng/mL
CN[C@H]1CC[C@@H](c2ccc(Cl)c(Cl)c2)c2ccccc21 [Sertraline, sertraline hydrochloride]	61 ng/mL

Same assay, conditions: whole blood 70 ng/ml on alginate foam; stored at room temperature

Compound	Nominal concentration at day 50
CN(C)CCCC1(c2ccc(F)cc2)OCc2cc(C#N)ccc21 (stereo not drawn) [Citalopram, citalopram hydrobromide]	64 ng/mL
CCC(=O)C(CC(C)N(C)C)(c1ccccc1)c1ccccc1 (stereo not drawn) [Methadone, Methadone hydrochloride]	61 ng/mL
CN[C@H]1CC[C@@H](c2ccc(Cl)c(Cl)c2)c2ccccc21 [Sertraline, sertraline hydrochloride]	77 ng/mL

Same assay, conditions: whole blood 70 ng/ml on alginate foam; stored at −18° C.

Compound	Nominal concentration at day 50
CN(C)CCCC1(c2ccc(F)cc2)OCc2cc(C#N)ccc21 (stereo not drawn) [Citalopram, citalopram hydrobromide]	72 ng/mL
CCC(=O)C(CC(C)N(C)C)(c1ccccc1)c1ccccc1 (stereo not drawn) [Methadone, Methadone hydrochloride]	79 ng/mL
CN[C@H]1CC[C@@H](c2ccc(Cl)c(Cl)c2)c2ccccc21 [Sertraline, sertraline hydrochloride]	64 ng/mL

Experiment: not given
Settings: cited from earlier work

Compound	pKa
N[C@H]1C(O)O[C@H](CO)[C@@H](O)[C@@H]1O (stereo partly drawn) [glucosamine]	6.3
O=C[C@H](O)[C@H](O)[C@@H](O)[C@H](O)C(=O)O [guluronic, guluronic acid]	3.65
